# Target: T1, AhR (Homo sapiens, UniProt P35869)
# T1 construct: The HepG2 CYP1A1-Luc cells do express basal luciferase activity that can be increased via potent AhR agonists or decreased via potent AhR antagonists; endogenous in cells
# T1 sequence (P35869 11-848): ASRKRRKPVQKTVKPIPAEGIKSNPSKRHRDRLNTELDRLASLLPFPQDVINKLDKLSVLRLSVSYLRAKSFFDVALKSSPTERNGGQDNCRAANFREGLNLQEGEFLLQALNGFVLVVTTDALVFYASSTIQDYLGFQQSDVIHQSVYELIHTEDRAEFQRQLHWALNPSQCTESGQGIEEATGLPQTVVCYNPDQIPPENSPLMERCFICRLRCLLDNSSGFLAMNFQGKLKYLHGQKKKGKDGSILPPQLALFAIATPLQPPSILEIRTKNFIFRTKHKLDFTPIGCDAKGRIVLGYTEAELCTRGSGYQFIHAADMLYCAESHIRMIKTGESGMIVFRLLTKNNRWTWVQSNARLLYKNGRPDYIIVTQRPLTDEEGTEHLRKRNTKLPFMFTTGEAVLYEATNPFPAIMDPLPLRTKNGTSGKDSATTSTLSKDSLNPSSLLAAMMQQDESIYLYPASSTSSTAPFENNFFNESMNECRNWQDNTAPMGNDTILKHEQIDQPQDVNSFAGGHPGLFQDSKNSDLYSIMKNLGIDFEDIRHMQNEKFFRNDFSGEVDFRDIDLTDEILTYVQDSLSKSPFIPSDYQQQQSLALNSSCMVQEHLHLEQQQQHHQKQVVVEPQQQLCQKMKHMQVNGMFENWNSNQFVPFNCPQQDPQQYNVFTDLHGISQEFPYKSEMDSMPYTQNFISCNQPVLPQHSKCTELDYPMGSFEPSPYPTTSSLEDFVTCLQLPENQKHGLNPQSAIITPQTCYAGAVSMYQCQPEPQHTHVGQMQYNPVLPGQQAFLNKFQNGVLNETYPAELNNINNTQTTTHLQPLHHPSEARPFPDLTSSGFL
# Test: AhR direct luciferase reporter assay in HepG2 cells (HepG2 CYP1A1-LUC)
# Type: cell-based
# Settings: luciferase activity after 18 hours, medium with no exogenous AhR agonist or 10 nM VAF347, read-out: AhR potency (AhR antagonistic potency, IC50 class)
# Source text: AhR Direct Luciferase Reporter Assay in HepG2 Cells
# A stable cell line (HepG2 CYP1A1-LUC) was used in which part of the promoter region of the human CYP1A1 gene is stably integrated into the genome of human HepG2 hepatocytes (DSZM #ACC 180) in front of a Photinus pyralis Firefly Luciferase gene. A 1210 bp fragment comprising part of the human CYP1A1 promoter was isolated via SacI and BgIII restriction digestion from Lightswitch Clone S714555 (SwitchGearGenomics) and inserted between the SacI and BgIII sites in pGL4.30 (Promega #E8481) in front of the Firefly Luciferase gene. The resulting vector was linearized with NotI, transfected into HepG2 cells (DSMZ #ACC 180) and stably transfected clones selected with 250 μg/ml Hygromycin B. After repetitive rounds of subcloning and testing for robustly regulated luciferase activity after AhR agonist stimulation, a stable clonal HepG2 CYP1A1-Luc cell line was selected.
# The HepG2 CYP1A1-Luc cells do express basal luciferase activity that can be increased via potent AhR agonists or decreased via potent AhR antagonists, added to the growth medium of the cells.
# In typical reporter assays performed with this cell line, cells are grown in 96-well plates and AhR modulators are titrated into the growth medium in serial dilutions in RPMI-1640 Medium (Sigma #R7509) supplemented with 8,6% fetal calf serum (Sigma #F7524) and containing either no exogenous AhR agonist or 10 nM of the potent AhR agonist VAF347 (Calbiochem #182690). Cells are further cultivated for 18 hours and luciferase activities are determined from extracts of cells in buffers containing D-Luciferine and ATvP using a LUMIstar Optima microplate Luminometer from BMG Labtech.
row,SMILES,IC50
1,"Cn1nccc1C(=O)Nc1ccc2cc(-c3cccnc3C(F)(F)F)[nH]c2n1 [Example 1/3, 1-Methyl-N-(2-(2-(trifluoromethyl)pyridin-3-yl)-1H-pyrrolo[2,3-b]pyridin-6-yl)-1H-pyrazole-5-carboxamide]",100 to 1000 nM
2,"O=C(Nc1ccc2cc(-c3ccccc3C(F)(F)F)[nH]c2n1)c1ncc2ccccn12 [Example 1/22, N-(2-(2-(trifluoromethyl)phenyl)-1H-pyrrolo[2,3-b]pyridin-6-yl)imidazo[1,5-a]pyridine-3-carboxamide]",< 100 nM
3,"Cn1ncnc1C(=O)Nc1ccc2cc(-c3cc(F)ccc3C(F)(F)F)[nH]c2n1 [Example 1/12, N-(2-(5-Fluoro-2-(trifluoromethyl)phenyl)-1H-pyrrolo[2,3-b]pyridin-6-yl)-1-methyl-1H-1,2,4-triazole-5-carboxamide]",< 100 nM
4,"Cn1ncnc1C(=O)Nc1ccc2cc(-c3ccc(F)cc3C(F)(F)F)[nH]c2n1 [Example 1/14, N-(2-(4-Fluoro-2-(trifluoromethyl)phenyl)-1H-pyrrolo[2,3-b]pyridin-6-yl)-1-methyl-1H-1,2,4-triazole-5-carboxamide]",< 100 nM
5,"Cn1nccc1C(=O)Nc1ccc2cc(-c3ccccc3OC(F)(F)F)[nH]c2n1 [Example 1/4, 1-Methyl-N-(2-(2-(trifluoromethoxy)phenyl)-1H-pyrrolo[2,3-b]pyridin-6-yl)-1H-pyrazole-5-carboxamide]",> 1000 nM
6,"Cn1ncnc1C(=O)Nc1ccc2cc(-c3ccccc3C(F)F)[nH]c2n1 [Example 1/15, N-(2-(2-(Difluoromethyl)phenyl)-1H-pyrrolo[2,3-b]pyridin-6-yl)-1-methyl-1H-1,2,4-triazole-5-carboxamide]",< 100 nM
7,Cn1ncnc1C(=O)Nc1ccc2c(F)c(-c3ccccc3C(F)F)[nH]c2n1 [4/6],100 to 1000 nM
8,"Cn1ncnc1C(=O)Nc1ccc2cc(-c3cccc4ccccc34)[nH]c2n1 [Example 1/13, 1-Methyl-N-(2-(naphthalen-1-yl)-1H-pyrrolo[2,3-b]pyridin-6-yl)-1H-1,2,4-triazole-5-carboxamide]",< 100 nM
9,"Cn1cncc1C(=O)Nc1ccc2cc(-c3ccccc3C(F)F)[nH]c2n1 [Example 5, N-(2-(2-(Difluoromethyl)phenyl)-1H-pyrrolo[2,3-b]pyridin-6-yl)-1-methyl-1H-imidazole-5-carboxamide]",100 to 1000 nM
10,Cc1ocnc1C(=O)Nc1ccc2cc(-c3ccccc3C(F)F)[nH]c2n1 [5/1],< 100 nM
11,Cc1scnc1C(=O)Nc1ccc2cc(-c3ccccc3C(F)F)[nH]c2n1 [5/2],< 100 nM
12,"Cn1ncnc1C(=O)Nc1ccc2cc(-c3cc(F)c(F)cc3C(F)F)[nH]c2n1 [Example 1/28, N-(2-(2-(Difluoromethyl)-4,5-difluorophenyl)-1H-pyrrolo[2,3-b]pyridin-6-yl)-1-methyl-1H-1,2,4-triazole-5-carboxamide]",< 100 nM
13,"Cn1ncnc1C(=O)Nc1ccc2cc(-c3ccccc3C3CC3)[nH]c2n1 [Example 4, N-(2-(2-Cyclopropylphenyl)-1H-pyrrolo[2,3-b]pyridin-6-yl)-1-methyl-1H-1,2,4-triazole-5-carboxamide]",< 100 nM
14,"Cn1ncnc1C(=O)Nc1ccc2cc(-c3ccccc3S(C)(=O)=O)[nH]c2n1 [Example 1/23, 1-Methyl-N-(2-(2-(methylsulfonyl)phenyl)-1H-pyrrolo[2,3-b]pyridin-6-yl)-1H-1,2,4-triazole-5-carboxamide]",> 1000 nM
15,"Cn1ncnc1C(=O)Nc1ccc2cc(-c3ccccc3C(F)(F)F)[nH]c2n1 [Example 1/6, 1-Methyl-N-(2-(2-(trifluoromethyl)phenyl)-1H-pyrrolo[2,3-b]pyridin-6-yl)-1H-1,2,4-triazole-5-carboxamide]",< 100 nM
16,"Cn1nccc1C(=O)Nc1ccc2cc(-c3cccc(OC(F)(F)F)c3)[nH]c2n1 [Example 1/5, 1-Methyl-N-(2-(3-(trifluoromethoxy)phenyl)-1H-pyrrolo[2,3-b]pyridin-6-yl)-1H-pyrazole-5-carboxamide]",> 1000 nM

row,SMILES,IC50
1,"O=C(Nc1ccc2cc(-c3ccccc3C(F)(F)F)[nH]c2n1)c1ccccn1 [Example 1/7, N-(2-(2-(Trifluoromethyl)phenyl)-1H-pyrrolo[2,3-b]pyridin-6-yl) picolinamide]",< 100 nM
2,"O=C(Nc1ccc2cc(-c3ccccc3C(F)(F)F)[nH]c2n1)c1cccnc1 [Example 1/10, N-(2-(2-(Trifluoromethyl)phenyl)-1H-pyrrolo[2,3-b]pyridin-6-yl) nicotinamide]",100 to 1000 nM
3,"Cn1nccc1C(=O)Nc1ccc2cc(-c3ccccc3C(F)(F)F)[nH]c2n1 [Example 1/1, 1-Methyl-N-(2-(2-(trifluoromethyl)phenyl)-1H-pyrrolo[2,3-b]pyridin-6-yl)-1H-pyrazole-5-carboxamide]",< 100 nM
4,"Cc1cc2cc(-c3ccccc3C(F)(F)F)[nH]c2nc1NC(=O)c1ncnn1C [Example 1/31, 1-Methyl-N-(5-methyl-2-(2-(trifluoromethyl)phenyl)-1H-pyrrolo[2,3-b]pyridin-6-yl)-1H-1,2,4-triazole-5-carboxamide]",100 to 1000 nM
5,"CN(C)C(=O)c1ccccc1-c1cc2ccc(NC(=O)c3ncnn3C)nc2[nH]1 [Example 8, N-(2-(2-(Dimethylcarbamoyl)phenyl)-1H-pyrrolo[2,3-b]pyridin-6-yl)-1-methyl-1H-1,2,4-triazole-5-carboxamide]",> 1000 nM
6,"Cn1ncnc1C(=O)Nc1ccc2cc(-c3cc(C(F)(F)F)ccc3C(F)(F)F)[nH]c2n1 [Example 1/30, N-(2-(2,5-Bis(trifluoromethyl)phenyl)-1H-pyrrolo[2,3-b]pyridin-6-yl)-1-methyl-1H-1,2,4-triazole-5-carboxamide]",< 100 nM
7,"O=C(Nc1ccc2cc(-c3ccccc3C(F)(F)F)[nH]c2n1)c1cc2ccoc2cn1 [Example 1/19, N-(2-(2-(Trifluoromethyl)phenyl)-1H-pyrrolo[2,3-b]pyridin-6-yl)furo[2,3-c]pyridine-5-carboxamide]",100 to 1000 nM
8,"Cc1nonc1C(=O)Nc1ccc2cc(-c3ccccc3C(F)(F)F)[nH]c2n1 [Example 1/20, 4-Methyl-N-(2-(2-(trifluoromethyl)phenyl)-1H-pyrrolo[2,3-b]pyridin-6-yl)-1,2,5-oxadiazole-3-carboxamide]",< 100 nM
9,"Cn1ncnc1C(=O)Nc1ccc2cc(-c3cc(F)ccc3C(F)F)[nH]c2n1 [Example 4/9, N-(2-(2-(difluoromethyl)-5-fluorophenyl)-1H-pyrrolo[2,3-b]pyridin-6-yl)-1-methyl-1H-1,2,4-triazole-5-carboxamide]",< 100 nM
10,"Cn1ncnc1C(=O)Nc1ccc2cc(-c3ncccc3C(F)(F)F)[nH]c2n1 [Example 1/17, 1-Methyl-N-(2-(3-(trifluoromethyl)pyridin-2-yl)-1H-pyrrolo[2,3-b]pyridin-6-yl)-1H-1,2,4-triazole-5-carboxamide]",> 1000 nM
11,"Cn1nccc1C(=O)Nc1ccc2cc(-c3cccc(C(F)(F)F)c3)[nH]c2n1 [Example 1/2, 1-Methyl-N-(2-(3-(trifluoromethyl)phenyl)-1H-pyrrolo[2,3-b]pyridin-6-yl)-1H-pyrazole-5-carboxamide]",100 to 1000 nM
12,"Cn1ncnc1C(=O)Nc1ccc2cc(-c3ccc(C(F)F)cc3)[nH]c2n1 [Example 1/25, N-(2-(4-(Difluoromethyl)phenyl)-1H-pyrrolo[2,3-b]pyridin-6-yl)-1-methyl-1H-1,2,4-triazole-5-carboxamide]",< 100 nM
13,Cn1ccnc1C(=O)Nc1ccc2cc(-c3ccccc3C(F)F)[nH]c2n1 [4/4],< 100 nM
14,Cn1ncnc1C(=O)Nc1ccc2cc(-c3ccccc3C#N)[nH]c2n1 [4/2],100 to 1000 nM
15,"COc1ccccc1-c1cc2ccc(NC(=O)c3ncnn3C)nc2[nH]1 [Example 1/18, N-(2-(2-Methoxyphenyl)-1H-pyrrolo[2,3-b]pyridin-6-yl)-1-methyl-11H-1,2,4-triazole-5-carboxamide]",100 to 1000 nM
